Source: patent US20140113904A1, “TREATMENT OF CANCER WITH TOR KINASE INHIBITORS” (SIGNAL PHARMACEUTICALS, LLC, priority 2012, published 2014)

How the values were obtained:
PC3 cells = assay: WST-1 cell proliferation assay (Compound 1, rapamycin); type: cell-based, human; conditions: read-out: Compound 1 Growth Inhibition IC50; PC3, 3 days
Description: All test wells were in triplicate on the plate and in a final volume of 200 μL. The final concentration of DMSO in all wells was 0.2%. […] All growth inhibition experiments were repeated on different occasions at least twice. Potency was determined from calculating the IC50 value from the data describing the growth inhibition curve. A reference compound was included in each plate assay to monitor inter-assay variation and the IC50 from the reference was used as part of the acceptance criteria for the assay.
Next, compound was added to the designated well at a dilution of 1:10 (i.e., 20 μL of the diluted compound was added to 180 μL of culture media in each well). The final dilution of compound was 1:500 which yielded a final DMSO concentration of 0.2% in each well. All concentrations were performed in triplicate. […] Absorbance was measured at 450 nm on the VICTOR™ X2 multilabel plate reader (PerkinElmer).
Raw data was saved as a text file and then entered into Activity Base (Cell-based SAR; Prolif-MTT, MTT-6pt-5plates unfixed fit. Version2). The software (XLfit from IDBS) calculated the percent inhibition at each compound concentration by normalizing to the DMSO control values for each set of triplicate wells. Percent inhibition curves were plotted and IC50 values calculated.
All data was analyzed using XLfit from IDBS. […]

4E-BP1(T46) = assay: Phospho-4E-BP1(T46) in PC3 cell lysates, Luminex multiplex; type: cell-based, human; conditions: PC3, 1 hour exposure; read-out: p-4E-BP1(T46) IC50
Excerpt: The direct substrate for TORC1 was 4E-BP 1(T46) and indirect downstream substrate was S6RP(S235/S236). The direct substrate for TORC2 was Akt(S473) and indirect downstream substrates measured were GSK3β(S9) and PRAS40(T246). Additionally, the phosphorylation status of Akt(T308), a phosphorylation site for PDK1 was monitored.
The multiplex Luminex assay format differs from conventional enzyme-linked immunosorbent assay (ELISA) in that the multiplex capture antibody is attached to a polystyrene bead whereas the ELISA capture antibody is attached to the microplate well. The use of the suspension bead-based technology enables the multiplexing capabilities of the Luminex assays. The xMAP® technology uses 5.6 micron polystyrene microspheres, which are internally dyed with red and infrared fluorophores of differing intensities. Each bead is given a unique number, or bead region, allowing differentiation of one bead from another. Beads covalently bound to different specific antibodies can be mixed in the same assay, utilizing a 96-well microplate format. At the completion of the sandwich immunoassay, beads can be read, using the Luminex 100™ or Luminex 200 detection system, in single-file by dual lasers for classification and quantification of each analyte. […]

PC3 tumors = assay: Antitumor activity of Compound 2 in PC3 human prostate cancer xenograft model; type: in vivo, SCID mice; conditions: for tumor volume reduction vs vehicle: Day 30
pDNA-PK (S2056) = pDNA-PK (S2056) immunohistochemistry in PC3 tumors (Compound 2); type: in vivo, SCID mice; conditions: 5 mg/kg QD for 6 days

SMILES | IC50 (PC3 cells) [nM] | IC50 (4E-BP1(T46)) [nM] | tumor volume reduction vs vehicle (PC3 tumors; 0.5 mg/kg BID) [%] | tumor volume reduction vs vehicle (PC3 tumors; 1 mg/kg BID) [%] | tumor volume reduction vs vehicle (PC3 tumors; 1 mg/kg QD) [%] | tumor inhibition (PC3 tumors; 1 mg/kg QD, Day 30 (BID/QD study)) | tumor volume reduction vs vehicle (PC3 tumors; 2 mg/kg QD) [%] | tumor volume reduction vs vehicle (PC3 tumors; 5 mg/kg QD) [%] | lowest efficacious dose (PC3 tumors; BID, approximately 65% tumor volume inhibition) [mg/kg] | reduction in threshold area positive for pDNA-PK (S2056) vs vehicle (pDNA-PK (S2056); 2 hours after the last dose) [%] | inhibition at 5 mg/kg (pDNA-PK (S2056); Mus musculus, through 24 hours after the last dose, read-out: pDNA-PK (S2056) inhibition (normalized to total DNA-PKcs)) [%]
CO[C@H]1CC[C@H](N2C(=O)CNc3ncc(-c4ccc(C(C)(C)O)nc4)nc32)CC1 [Compound 1, 7-(6-(2-hydroxypropan-2-yl)pyridin-3-yl)-1-((1r,4r)-4-methoxycyclohexyl)-3,4-dihydropyrazino-[2,3-b]pyrazin-2(1H)-one] | 110 | 410 |  |  |  |  |  |  |  |  | 
CCN1C(=O)CNc2ncc(-c3ccc(-c4nc[nH]n4)nc3C)nc21 [Compound 2, 1-ethyl-7-(2-methyl-6-(1H-1,2,4-triazol-3-yl)pyridin-3-yl)-3,4-dihydropyrazino[2,3-b]pyrazin-2(1H)-one] |  |  | 57 | 66 | 55 | the same as 0.5 mg/kg BID | 63 | 76 | 1 | 98 | ~90
